From US20060014197A1, “In vivo screening methods for identifying inhibitors of RNA polymerases” (priority 2004, published 2006) come the findings set out here.

In one assay the target is T1, resident RNAPII (Homo sapiens, UniProt P24928).
T1 construct: endogenous in cells; host or cells: human HeLa or 293 cells
Nature of the assay: Tet-ON GFP reporter assay in transfected eukaryotic cells, no amanitin-resistant RPB1 expressed. Format: cell-based. Particulars: human HeLa or 293 cells, amanitin added, doxycycline induction, 48 hours; FIG. 7B.

Assay [1] has as its target T2, amanitin-resistant RNAPII (human RPB1 N792D) (Homo sapiens, UniProt P24928, N792D).
T2 construct: expressed in transfected cells; host or cells: human HeLa or 293 cells transfected with the RPB1 plasmid and pGFP
Nature of the assay: Tet-ON GFP reporter assay in transfected eukaryotic cells expressing amanitin-resistant RPB1. The format is cell-based. The settings on record: human HeLa or 293 cells with plasmid-expressed amanitin-resistant RPB1, amanitin added, doxycycline induction, 48 hours; FIG. 7B.

As to `CC[C@H](C)[C@@H]1NC(=O)CNC(=O)[C@@H]2Cc3c([nH]c4cc(O)ccc34)[S+]([O-])C[C@@H](NC(=O)CNC1=O)C(=O)N[C@@H](CC(N)=O)C(=O)N1C[C@H](O)C[C@H]1C(=O)N[C@@H]([C@@H](C)[C@@H](O)CO)C(=O)N2` (stereo partly drawn) [amanitin, alpha-amanitin], the “GFP fluorescent signal (flow cytometer)” value is listed as “no fluorescent signal is observed” on resident RNAPII and “results in fluorescent signal” in assay [1].
